Data taken from patent US8912180B2, “Heterocyclic compound” (Astellas Pharma Inc., priority 2010, dated 2014).
Structures can show the parent of a compound that is named as a salt.

Key:
[1] = system: Spleen cells prepared from male LEW/CrlCrlj rats (B cell proliferation); assay: Rat B cell proliferation inhibition test (anti-rat IgM, [3H]thymidine); type: cell-based; settings: anti-rat IgM 3 μg/well, 48 hours culture
Procedure: 4. Rat B Cell Proliferation Inhibition Test
Spleen cells (1.0×10^5 cells/well) prepared from male LEW/CrlCrlj rats (Charles River Laboratories, Japan, Inc.), mouse F(ab′)2 fragment anti-rat IgM (3 μg/well, SouthernBiotech Associates, Inc., Catalogue No. 3082-14) and the test compound dissolved in DMSO (final DMSO concentration 0.1%) were mixed in a 96-well plate using a 10% FCS-containing RPMI-1640 culture medium (total 200 μL). They were cultured in a CO2 incubator for 48 hours and [^3H]thymidine (925 GBq/mmol, Moravek Biochemicals, Inc., Catalogue No. MT6038) was added thereto at 0.037 MBq/well at 4 hours before completion of culture. Cells were harvested in a GF/C glass filter using a cell harvester, and a radioactivity on the filter was measured using a liquid scintillation counter.

Human PI3Kα = target: T1, Human PI3Kα (Homo sapiens, UniProt P42336); assay: PI3Kα enzyme inhibitory activity (Kinase-Glo Plus luminescence); type: biochemical; settings: human PI3Kα 12 ng/well, phosphatidylinositol 0.2 μg/well, 37° C. 3 hours
T1 construct: purchased Millipore Corporation 14-602
Procedure: 2. PI3Kα Enzyme Inhibitory Activity
Human PI3Kα (12 ng/well, Millipore Corporation, Catalogue No. 14-602), phosphatidylinositol (0.2 μg/well), and the test compound were mixed in a 384-well plate in a reaction buffer (50 mM Hepes, 10 mM NaCl, 10 mM MgCl2, 2 mM EGTA, 2 mM DTT, pH 7.3) (total 10 μl), and incubated at 37° C. for 3 hours. After the reaction, 10 μL of a Kinase-Glo Plus reagent (Promega, Catalogue No. V3772) was added thereto, and a luminescence was measured with a luminometer.

human PI3Kδ enzyme = target: T2, human PI3Kδ enzyme (Homo sapiens, UniProt O00329); assay: PI3Kδ enzyme inhibitory activity (PI3-Kinase HTRF Assay kit); type: biochemical; settings: human PI3Kδ 10 ng/well, ATP 30 μM, PIP2 10 μM, room temperature 30 minutes
T2 construct: purchased Millipore Corporation 14-604
Procedure: 1. PI3Kδ Enzyme Inhibitory Activity
For the experiment, a PI3-Kinase HTRF Assay kit (Millipore Corporation, Catalogue No. 33-016) and a human PI3Kδ enzyme (Millipore Corporation, Catalogue No. 14-604) were used. The measurement method was in accordance with the appended instructions. The overview thereof is as follows.
PI3Kδ (10 ng/well), phosphatidylinositol-4,5-bisphosphate (10 μM), ATP (30 μM), and the test compound were mixed in a 384-well plate (total 20 μL), and incubated at room temperature for 30 minutes. EDTA and biotinylated phosphatidylinositol-3,4,5-triphosphate were added thereto to stop the reaction. Thereafter, a Europium labeled anti-GST antibody, a GST bond GRP1 PH domain, and streptavidin-APC were added thereto, followed by incubation overnight. An HTRF ratio was measured using an HTRF plate reader.

T1 sequence (P42336 whole entry): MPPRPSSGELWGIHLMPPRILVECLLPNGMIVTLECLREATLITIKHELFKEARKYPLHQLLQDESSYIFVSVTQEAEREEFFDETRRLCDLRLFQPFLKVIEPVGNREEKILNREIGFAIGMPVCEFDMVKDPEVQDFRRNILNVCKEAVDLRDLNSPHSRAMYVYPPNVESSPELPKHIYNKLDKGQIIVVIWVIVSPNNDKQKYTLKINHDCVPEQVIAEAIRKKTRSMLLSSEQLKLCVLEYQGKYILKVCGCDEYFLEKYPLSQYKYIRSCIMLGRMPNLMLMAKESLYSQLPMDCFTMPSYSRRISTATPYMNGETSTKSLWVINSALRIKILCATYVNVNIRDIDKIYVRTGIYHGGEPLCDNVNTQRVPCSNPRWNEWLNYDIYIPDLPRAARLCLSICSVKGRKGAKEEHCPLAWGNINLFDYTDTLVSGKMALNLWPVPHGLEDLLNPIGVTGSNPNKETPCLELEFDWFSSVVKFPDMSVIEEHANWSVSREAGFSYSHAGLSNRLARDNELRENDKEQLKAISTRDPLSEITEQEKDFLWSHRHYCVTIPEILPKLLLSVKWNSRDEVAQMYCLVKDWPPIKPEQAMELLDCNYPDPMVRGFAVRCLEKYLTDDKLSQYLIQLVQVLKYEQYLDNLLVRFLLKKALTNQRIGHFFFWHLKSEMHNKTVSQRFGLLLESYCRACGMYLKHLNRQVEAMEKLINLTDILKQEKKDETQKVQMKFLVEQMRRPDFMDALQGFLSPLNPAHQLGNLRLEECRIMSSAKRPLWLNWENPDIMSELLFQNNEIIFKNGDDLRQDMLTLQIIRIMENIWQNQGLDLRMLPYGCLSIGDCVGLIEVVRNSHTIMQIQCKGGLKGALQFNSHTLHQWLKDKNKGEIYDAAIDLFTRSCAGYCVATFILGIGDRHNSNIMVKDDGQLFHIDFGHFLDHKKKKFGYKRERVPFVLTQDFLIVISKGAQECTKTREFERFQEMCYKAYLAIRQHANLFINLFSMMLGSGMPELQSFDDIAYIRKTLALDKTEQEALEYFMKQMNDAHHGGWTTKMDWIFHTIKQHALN
T1 sequence (P27986 whole entry partner): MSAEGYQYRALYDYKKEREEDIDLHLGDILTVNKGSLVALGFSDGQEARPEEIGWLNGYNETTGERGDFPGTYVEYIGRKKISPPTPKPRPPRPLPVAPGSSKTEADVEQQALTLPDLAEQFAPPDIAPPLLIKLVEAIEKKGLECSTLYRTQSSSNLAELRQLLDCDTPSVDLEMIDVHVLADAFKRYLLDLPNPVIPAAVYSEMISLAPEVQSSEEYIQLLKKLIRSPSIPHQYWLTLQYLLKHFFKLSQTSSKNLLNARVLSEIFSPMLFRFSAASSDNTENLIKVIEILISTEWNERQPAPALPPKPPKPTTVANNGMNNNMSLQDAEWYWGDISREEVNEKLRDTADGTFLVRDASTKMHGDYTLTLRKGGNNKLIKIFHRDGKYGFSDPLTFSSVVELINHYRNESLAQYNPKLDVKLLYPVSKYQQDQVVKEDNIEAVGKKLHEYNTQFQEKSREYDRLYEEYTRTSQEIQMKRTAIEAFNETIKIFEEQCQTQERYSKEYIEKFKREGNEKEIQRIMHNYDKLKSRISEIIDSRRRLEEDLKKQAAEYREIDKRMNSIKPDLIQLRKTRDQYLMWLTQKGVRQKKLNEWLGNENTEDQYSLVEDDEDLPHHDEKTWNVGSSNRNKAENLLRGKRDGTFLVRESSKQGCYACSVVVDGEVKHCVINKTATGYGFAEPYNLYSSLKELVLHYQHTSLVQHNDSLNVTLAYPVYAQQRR
T2 sequence (O00329 whole entry): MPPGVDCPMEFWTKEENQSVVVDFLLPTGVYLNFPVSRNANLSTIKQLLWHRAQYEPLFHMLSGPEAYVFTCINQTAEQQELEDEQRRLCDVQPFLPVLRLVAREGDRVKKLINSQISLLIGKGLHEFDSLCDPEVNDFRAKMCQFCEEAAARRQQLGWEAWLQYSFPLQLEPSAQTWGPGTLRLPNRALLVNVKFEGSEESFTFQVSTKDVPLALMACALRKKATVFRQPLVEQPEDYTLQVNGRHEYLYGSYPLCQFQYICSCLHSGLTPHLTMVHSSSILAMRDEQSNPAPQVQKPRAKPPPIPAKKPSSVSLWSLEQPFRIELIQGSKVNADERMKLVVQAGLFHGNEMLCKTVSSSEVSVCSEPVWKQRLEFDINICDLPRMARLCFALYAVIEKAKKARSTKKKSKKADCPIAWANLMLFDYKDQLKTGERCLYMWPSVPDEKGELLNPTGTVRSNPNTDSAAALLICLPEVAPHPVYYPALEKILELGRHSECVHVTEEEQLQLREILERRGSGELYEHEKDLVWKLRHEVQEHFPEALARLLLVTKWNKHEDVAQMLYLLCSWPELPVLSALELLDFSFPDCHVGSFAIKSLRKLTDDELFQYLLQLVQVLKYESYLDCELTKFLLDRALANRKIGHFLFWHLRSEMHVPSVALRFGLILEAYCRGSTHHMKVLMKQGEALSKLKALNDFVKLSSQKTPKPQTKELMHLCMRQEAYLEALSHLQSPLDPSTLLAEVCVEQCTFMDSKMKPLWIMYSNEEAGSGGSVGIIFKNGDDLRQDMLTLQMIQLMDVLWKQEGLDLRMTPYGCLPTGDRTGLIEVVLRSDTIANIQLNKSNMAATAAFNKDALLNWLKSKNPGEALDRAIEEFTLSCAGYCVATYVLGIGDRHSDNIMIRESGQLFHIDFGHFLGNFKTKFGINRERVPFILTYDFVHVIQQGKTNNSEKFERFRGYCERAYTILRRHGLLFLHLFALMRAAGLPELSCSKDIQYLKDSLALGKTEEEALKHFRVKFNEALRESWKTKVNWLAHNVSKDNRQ
T2 sequence (P27986 whole entry partner): as the sequence (P27986 whole entry partner) above

| Compound | IC50 (Human PI3Kα) [µM] | IC50 (human PI3Kδ enzyme) [nM] | IC50 [1] [nM] |
| --- | --- | --- | --- |
| O=C(C1CCOCC1)N1CC[C@H](Nc2cc(-n3c(C(F)F)nc4ccccc43)nc(N3CCOCC3)n2)C1 [A293] | 3.2 | 19 | 2.6 |
| COC(=O)N1CCC(C(=O)N2CC[C@H](Nc3cc(-n4c(C(F)F)nc5ccccc54)nc(N4CCOCC4)n3)C2)CC1 [A298] | 3.5 | 28 | 1.2 |
| O=C(CC1CCCO1)N1CC[C@H](Nc2cc(-n3c(C(F)F)nc4ccccc43)nc(N3CCOCC3)n2)C1 (stereo partly drawn) [A299] | 4.9 | 25 | 2.5 |
| O=C(CC1CCOCC1)N1CC[C@H](Nc2cc(-n3c(C(F)F)nc4ccccc43)nc(N3CCOCC3)n2)C1 [A300] | 6.5 | 26 | 2.6 |
| O=C(C1CCOC1)N1CC[C@H](Oc2cc(-n3c(C(F)F)nc4ccccc43)nc(N3CCOCC3)n2)C1 (stereo partly drawn) [A449] | 1.4 | 20 | 0.4 |
| CN1CC(C(=O)N2CC[C@H](Oc3cc(-n4c(C(F)F)nc5ccccc54)nc(N4CCOCC4)n3)C2)CC1=O (stereo partly drawn) [A451] | 2.2 | 35 | 1.2 |
| CC(=O)N1CCC(CC(=O)N2CC[C@H](Nc3cc(-n4c(C(F)F)nc5ccccc54)nc(N4CCOCC4)n3)C2)CC1 [A463] | 3.1 | 27 | 1.4 |
| O=C(CN1CCCCC1)N1CC[C@H](Nc2cc(-n3c(C(F)F)nc4ccccc43)nc(N3CCOCC3)n2)C1 [A475] | 1.4 | 25 | 1.1 |
| CC(=O)N1CCC(CC(=O)N2CC(Nc3cc(-n4c(C(F)F)nc5ccccc54)nc(N4CCOCC4)n3)C2)CC1 [A564] |  | 19 | 2.2 |
| CC(C)(C)OC(=O)N1CC[C@H](Nc2nc(N3CCOCC3)cc(-n3c(C(F)F)nc4ccccc43)n2)C1 [Example 1, tert-butyl (3S)-3-({4-[2-(difluoromethyl)-1H-benzimidazol-1-yl]-6-morpholin-4-ylpyrimidin-2-yl}amino)pyrrolidine-1-carboxylate] | 2.8 | 29 |  |
| CN1CCC(CNc2cc(-n3c(C(F)F)nc4ccccc43)nc(N3CCOCC3)n2)CC1 [Example 4] | > 3 | 60 |  |
| C[C@H]1COCCN1c1cc(-n2c(C(F)F)nc3ccccc32)nc(NCC2CCN(C(=O)OC(C)(C)C)CC2)n1 [Example 13] | 0.98 | 36 |  |
| CC(C)(C)OC(=O)N1CCC(CNc2nc(N3CCOC[C@@H]3CF)cc(-n3c(C(F)F)nc4ccccc43)n2)CC1 [Example 16] | > 10 | 69 |  |
| CC(C)(C)OC(=O)N1CCC[C@H](CNc2nc(N3CCOCC3)cc(-n3c(C(F)F)nc4ccccc43)n2)C1 [Example 18] | 7.7 | 50 |  |
| C[C@H]1COCCN1c1cc(-n2c(C(F)F)nc3ccccc32)nc(NC[C@H]2CCCN(C(=O)OC(C)(C)C)C2)n1 [Example 20] | 1.8 | 19 |  |
| FC(F)c1nc2ccccc2n1-c1cc(N2CCOCC2)nc(NCCC2CCN(Cc3ccccc3)CC2)n1 [Example 25] | 6.2 | 69 |  |
| OC1CCC(N2CCC(CNc3nc(N4CCOCC4)cc(-n4c(C(F)F)nc5ccccc54)n3)CC2)CC1 (stereo not drawn) [Example 28] | > 3 | 35 |  |
| C[C@H]1COCCN1c1cc(-n2c(C(F)F)nc3ccccc32)nc(NCC2CCN(C3CCOCC3)CC2)n1 [Example 38] | 2.2 | 23 | 2.9 |
| FC(F)c1nc2ccccc2n1-c1cc(N2CCOCC2)nc(NCC2CCN(CC3CCOCC3)CC2)n1 [Example 39] | 3.9 | 27 |  |
| FC(F)c1nc2ccccc2n1-c1cc(OCC2CCN(C3CCOCC3)CC2)nc(N2CCOCC2)n1 [Example 40] | > 10 | 20 | 9 |
| CN(C)CCN1CC[C@H](Nc2nc(N3CCOCC3)cc(-n3c(C(F)F)nc4ccccc43)n2)C1 [Example 45, 4-[2-(difluoromethyl)-1H-benzimidazol-1-yl]-N-{(3S)-1-[2-(dimethylamino)ethyl]pyrrolidin-3-yl}-6-morpholin-4-ylpyrimidin-2-amine dihydrochloride] | 6.8 | 56 |  |
| CN(C)CC(=O)N1CCC(CNc2nc(N3CCOCC3)nc(-n3c(C(F)F)nc4ccccc43)n2)CC1 [Example 67] | 0.99 | 47 |  |
| CN(C)CC(=O)N1CC(Nc2nc(N3CCOCC3)cc(-n3c(C(F)F)nc4ccccc43)n2)C1 [Example 69] |  | 22 |  |
| Fc1ccc(N2CCC(CNc3nc(N4CCOCC4)cc(-n4c(C(F)F)nc5ccccc54)n3)CC2)cc1 [Example 75] | 5.4 | 25 |  |
| Fc1ccccc1N1CCC(CNc2nc(N3CCOCC3)cc(-n3c(C(F)F)nc4ccccc43)n2)CC1 [Example 77] | 5.4 | 18 |  |
| FC(F)c1nc2ccccc2n1-c1cc(N2CCOCC2)nc(NCC23CCC(N4CCOCC4)(CC2)CC3)n1 [Example 120] | 6.4 | 27 |  |
| COC(=O)N[C@@H]1CCN([C@H]2CC[C@H](Nc3cc(-n4c(C(F)F)nc5ccccc54)nc(N4CCOCC4)n3)CC2)C1=O [Example 371] | 5 | 35 |  |

The next lines start with results.

| IC50 (Human PI3Kα) [µM] | IC50 (human PI3Kδ enzyme) [nM] | Compound | IC50 [1] [nM] |
| --- | --- | --- | --- |
| 3.8 | 7.4 | O=C([C@H]1CCCO1)N1CC[C@H](Nc2cc(-n3c(C(F)F)nc4ccccc43)nc(N3CCOCC3)n2)C1 [A290] | 2.2 |
| 2.2 | 10 | O=C(C1CCOC1)N1CC[C@H](Nc2cc(-n3c(C(F)F)nc4ccccc43)nc(N3CCOCC3)n2)C1 (stereo partly drawn) [A464] |  |
| 2 | 15 | CN1CC(C(=O)N2CC[C@H](Nc3cc(-n4c(C(F)F)nc5ccccc54)nc(N4CCOCC4)n3)C2)CC1=O (stereo partly drawn) [A466] | 1.8 |
| 2.9 | 14 | O=C1CC[C@@H](C(=O)N2CC(Nc3cc(-n4c(C(F)F)nc5ccccc54)nc(N4CCOCC4)n3)C2)N1 [A562] | 3.9 |
| > 3 | 12 | CC(C)(C)OC(=O)N1CCC(N2CCC(CNc3nc(N4CCOCC4)cc(-n4c(C(F)F)nc5ccccc54)n3)CC2)CC1 [Example 30] |  |
| 4.2 | 18 | FCC(CF)N1CCC(CNc2nc(N3CCOCC3)cc(-n3c(C(F)F)nc4ccccc43)n2)CC1 [Example 35] |  |
| 6.7 | 17 | FC(F)c1nc2ccccc2n1-c1cc(N2CCOCC2)nc(NCC2CCN(C3CCC(F)(F)CC3)CC2)n1 [Example 36] | 6.8 |
| 8 | 8.6 | FC(F)c1nc2ccccc2n1-c1cc(N2CCOCC2)nc(NCC2CCN([C@H]3CC[C@@H](F)CC3)CC2)n1 [Example 43-2, 4-[2-(difluoromethyl)-1H-benzimidazol-1-yl]-N-{[1-(cis-4-fluorocyclohexyl)piperidin-4-yl]methyl}-6-(morpholin-4-yl)pyrimidin-2-amine dihydrochloride] | 3.1 |
| 5 | 14 | FC(F)c1nc2ccccc2n1-c1cc(N2CCOCC2)nc(NCC2CCN(c3ccccc3)CC2)n1 [Example 44, 4-[2-(difluoromethyl)-1H-benzimidazol-1-yl]-6-(morpholin-4-yl)-N-[(1-phenylpiperidin-4-yl)methyl]pyrimidin-2-amine dihydrochloride] |  |
| 2.9 | 8.5 | COc1ccc(N2CCC(CNc3nc(N4CCOCC4)cc(-n4c(C(F)F)nc5ccccc54)n3)CC2)cc1 [Example 78] |  |
| > 3 | 5.7 | CN(C)CC(=O)N[C@H]1CCC[C@H](Nc2cc(-n3c(C(F)F)nc4ccccc43)nc(N3CCOCC3)n2)C1 [Example 100] |  |
| > 3 | 4.5 | FC(F)c1nc2ccccc2n1-c1cc(N[C@H]2CCC[C@@H](N3CCOCC3)C2)nc(N2CCOCC2)n1 [Example 123] |  |
| 5.9 | 5.2 | O=C(CNCC1CC1)N[C@H]1CC[C@H](Oc2cc(-n3c(C(F)F)nc4ccccc43)nc(N3CCOCC3)n2)CC1 [Example 133] |  |
| 3.3 | 5.8 | C[C@@H]1C[C@H](N2CCC(CNc3nc(N4CCOCC4)cc(-n4c(C(F)F)nc5ccccc54)n3)CC2)C[C@H](C)O1 [Example 194] |  |
